Results: US20080107625A1, “Inhibitors of Hepatitis C Virus” (Bristol-Myers Squibb Company, priority 2006, published 2008)

Test system: HCV replicon in HUH-7 cells
Test: HCV replicon FRET assay
Type: cell-based, HCV strain 1b
Details: Hepatitis C virus, 96 h, 4 days
Source text: An HCV replicon whole cell system was established as described by Lohmann V, Korner F, Koch J, Herian U, Theilmann L, Bartenschlager R., Science 285(5424): 110-3 (1999). This system enabled us to evaluate the effects of our HCV Protease compounds on HCV RNA replication. Briefly, using the HCV strain 1b sequence described in the Lohmann paper (Assession number: AJ238799), an HCV cDNA was synthesized by Operon Technologies, Inc. (Alameda, Calif.), and the full-length replicon was then assembled in plasmid pGem9zf(+) (Promega, Madison, Wis.) using standard molecular biology techniques. […]
The HCV replicon FRET assay was developed to monitor the inhibitory effects of compounds described in the disclosure on HCV viral replication. […] After 4 days, cells were first assessed for cytotoxicity using alamar Blue (Trek Diagnostic Systems) for a CC50 reading. The toxicity of compound (CC50) was determined by adding 1/10th volume of alamar Blue to the media incubating the cells. After 4 hours, the fluorescence signal from each well was read, with an excitation wavelength at 530 nm and an emission wavelength of 580 nm, using the Cytofluor Series 4000 (Perspective Biosystems). […]

CC(C)(C)OC(=O)N[C@H]1CN(C2CC2)CCC/C=C\C2C[C@@]2(C(=O)NS(=O)(=O)C2CC2)NC(=O)[C@@H]2C[C@@H](Oc3ccccn3)CN2C1=O (stereo partly shown) [Compound 1]
EC50: 1090 nM
